# Measurements taken from paper PMC7226370, “Thymus algeriensis and Thymus fontanesii: Chemical Composition, In Vivo Antiinflammatory, Pain Killing and Antipyretic Activities: A Comprehensive Comparison” (Biomolecules, 2020).
# Key:
# [1] = Total antioxidant capacity (TAC) ELISA kit; settings: mean ± SEM, n = 3
# Method: The total antioxidant capacity of the extracts was evaluated against ascorbic acid as a reference standard using the commercially available TAC ELISA kit (MBS726896, my BioSource, Inc., San Diego, CA, USA) according to the manufacturer’s instructions and according to Sobeh et al..
# [2] = tested on: acetic acid-induced vascular permeability in mice; test: Acetic acid-induced vascular permeability (Evans blue); assay type: in vivo, mouse
# Method: Acetic acid-induced vascular permeability was done as described by Sobeh et al.. […] One group of mice was injected with normal saline to serve as normal control. Mice were euthanized 30 min later by cervical dislocation, the abdominal cavities were washed with 3 mL saline solution, and the collected washings were then centrifuged at 3000 rpm for 10 min. The vascular permeability is proportional to the absorbance of Evans blue dye in the supernatant, which was detected at 610 nm using a plate reader (Biotech, Winooski, VT, USA).
# [3] = tested on: carrageenan-induced hind paw edema in rats; test: Carrageenan-induced hind-paw edema model; assay type: in vivo, rat; settings: 1 h before carrageenan
# Method: Nine groups of male rats (200-220 g) with five animals per group were used in this experiment. Induction of edema in the rats' right hind paw was done by injecting 0.1 mL freshly prepared carrageenan solution (1% in 0.9% NaCl), into the sub-plantar tissue. […] By the aid of a caliper ruler, the paw thickness (mm) was measured in the dorsal- plantar axis before and after injecting the carrageenan solution, and at hourly intervals for 5 h, and finally at 24 h. The cumulative anti-inflammatory effect during the whole observation period (0-24 h) was determined by calculating the area under the changes in paw thickness-time curve (AUC0-24).
# [4] = tested on: leukocyte migration into the peritoneal cavity in mice; test: Carrageenan-induced leukocyte recruitment into peritoneal cavity; assay type: in vivo, mouse
# Method: Three hours later, the mice were euthanized, and each peritoneal cavity was washed with 3 mL of phosphate-buffered saline (PBS) containing 1mM ethylenediaminetetraacetic acid (EDTA). The total leukocytes count was determined in each peritoneal cavity wash using a hemocytometer and presented as number of cells/mL.
# lipoxygenase (5-LOX) = test: Lipoxygenase inhibitor screening assay kit; assay type: biochemical; settings: in vitro, mean ± SEM, n = 3
# Method: The potential of T. algeriensis and T. fontanesii extracts to inhibit lipoxygenase was evaluated using a lipoxygenase inhibitor screening assay kit (Cayman Chemical, AnnArbor, MI, USA) according to the manufacturer’s instructions and the study by Adellall et al..
# [5] = tested on: Brewer's yeast induced pyrexia in mice; test: Brewer's yeast induced pyrexia; assay type: in vivo, mouse; settings: in °C (unit assumed)
# Method: Pyrexia in mice was induced as described by Liu et al. with minor modifications. The initial rectum temperature of each animal was measured using a lubricated digital thermometer. Brewer’s yeast suspension was prepared in normal saline (30%) and injected subcutaneously behind the animal’s neck (1 mL/100 g). After 18 h, animals’ rectal temperatures were measured again (T0). […] Pyretic animals were treated orally with either T. algeriensis or T. fontanesii extracts in three dose levels (200, 400, and 600 mg/kg), paracetamol (150 mg/kg), or vehicle. Rectal temperatures were measured at 30 min, 1, 2, 3 and 24 h following the different treatments.
compound,measurement,setting,value
O=C1O[C@H]([C@@H](O)CO)C(O)=C1O [Ascorbic Acid],TAC (total antioxidant capacity),[1],27.6 ± 1.40 U/L
O=C(O)Cc1ccccc1Nc1c(Cl)cccc1Cl [Diclofenac],lower Evans blue readings compared to control,[2]; 20 mg/kg,73%
same,"reduction of paw thickness, of control AUC0-24",[3]; 20 mg/kg p.o.,44%
same,reduction in leucocyte number,[4]; 20 mg/kg p.o. before carrageenan 500 µg i.p.,39%
same,IC50,lipoxygenase (5-LOX),2.6 ± 0.21 µM
CC(=O)Nc1ccc(O)cc1 [Paracetamol],"Rectal Temperature Recorded Following Different Treatments, 30 min","[5]; 150 mg/kg p.o., 30 min",38.18 ± 0.20
same,"Rectal Temperature Recorded Following Different Treatments, 1 h","[5]; 150 mg/kg p.o., 1 h",37.56 ± 0.30
same,"Rectal Temperature Recorded Following Different Treatments, 2 h","[5]; 150 mg/kg p.o., 2 h",37.06 ± 0.29
same,"Rectal Temperature Recorded Following Different Treatments, 3 h","[5]; 150 mg/kg p.o., 3 h",36.94 ± 0.25
same,"Rectal Temperature Recorded Following Different Treatments, 24 h","[5]; 150 mg/kg p.o., 24 h",36.54 ± 0.23
same,Rectal Temperature measured at 18 h after yeast injection,"[5]; group of 150 mg/kg, before treatment (T0)",38.66 ± 0.18
CC(c1cc2ccccc2s1)N(O)C(N)=O (stereo not drawn) [Zileuton],IC50,lipoxygenase (5-LOX),3.2 ± 0.15 µM
C[C@@H]1C[C@H]2[C@@H]3CCC4=CC(=O)C=C[C@]4(C)[C@@]3(F)[C@@H](O)C[C@]2(C)[C@@]1(O)C(=O)CO [dexamethasone],lower Evans blue readings compared to control,[2]; 2 mg/kg,60%
same,reduction in AUC0-24 values compared to vehicle-treated rats,[3]; 2 mg/kg p.o.,51%
same,reduction in leucocyte number,[4]; 2 mg/kg p.o. before carrageenan 500 µg i.p.,30%
